Assay results taken from US10131652B2, “Pyrimidinyloxy benzene derivatives as herbicides” (E. I. DU PONT DE NEMOURS AND COMPANY, priority 2014, dated 2018).
Read-outs that look alike come from different tables or passages of the source.

Legend:
Assay in all cases: Test E pre-/postemergence plant response
Assay type in all cases: in vivo
[1] = tested on: Italian ryegrass (Lolium multiflorum); details: scale 0 to 100, read-out: Plant response rating, Ryegrass, Italian; for pest or weed control at 16 g/ha: 16 g ai/ha; for pest or weed control at 31 g/ha: 31 g ai/ha; for pest or weed control at 62 g/ha: 62 g ai/ha; for pest or weed control at 125 g/ha: 125 g ai/ha
Procedure, shortened: (§1)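 Visual scores on a 0–100 scale (100 = complete control) were assigned against untreated controls 7–21 days after treatment in a controlled environment. Compounds, formulated with solvent plus surfactant, were applied to pre-emergence silt-loam sowings or to 1- to 4-leaf plants (2–18 cm) in potting medium.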

[2] = tested on: chickweed (common chickweed, Stellaria media); details: scale 0 to 100, read-out: Plant response rating, Chickweed; for pest or weed control at 16 g/ha: 16 g ai/ha; for pest or weed control at 31 g/ha: 31 g ai/ha; for pest or weed control at 62 g/ha: 62 g ai/ha; for pest or weed control at 125 g/ha: 125 g ai/ha
Procedure, shortened: as §1

[3] = tested on: field violet (Viola arvensis); details: scale 0 to 100, read-out: Plant response rating, Field Violet; for pest or weed control at 16 g/ha: 16 g ai/ha; for pest or weed control at 31 g/ha: 31 g ai/ha; for pest or weed control at 62 g/ha: 62 g ai/ha; for pest or weed control at 125 g/ha: 125 g ai/ha
Procedure, shortened: as §1

[4] = tested on: galium (catchweed bedstraw, Galium aparine); details: scale 0 to 100, read-out: Plant response rating, Galium; for pest or weed control at 16 g/ha: 16 g ai/ha; for pest or weed control at 31 g/ha: 31 g ai/ha; for pest or weed control at 62 g/ha: 62 g ai/ha; for pest or weed control at 125 g/ha: 125 g ai/ha
Procedure, shortened: as §1

[5] = tested on: green foxtail (Setaria viridis); details: scale 0 to 100, read-out: Plant response rating, Foxtail, Green; for pest or weed control at 16 g/ha: 16 g ai/ha; for pest or weed control at 31 g/ha: 31 g ai/ha; for pest or weed control at 62 g/ha: 62 g ai/ha; for pest or weed control at 125 g/ha: 125 g ai/ha
Procedure, shortened: as §1

[6] = tested on: lambsquarters (Chenopodium album); details: scale 0 to 100, read-out: Plant response rating, Lambsquarters; for pest or weed control at 16 g/ha: 16 g ai/ha; for pest or weed control at 31 g/ha: 31 g ai/ha; for pest or weed control at 62 g/ha: 62 g ai/ha; for pest or weed control at 125 g/ha: 125 g ai/ha
Procedure, shortened: as §1

[7] = tested on: oilseed rape (Brassica napus); details: scale 0 to 100, read-out: Plant response rating, Oilseed Rape; for plant injury at 16 g/ha: 16 g ai/ha; for plant injury at 31 g/ha: 31 g ai/ha; for plant injury at 62 g/ha: 62 g ai/ha; for plant injury at 125 g/ha: 125 g ai/ha
Procedure, shortened: as §1

[8] = tested on: pigweed (Amaranthus retroflexus); details: scale 0 to 100, read-out: Plant response rating, Pigweed; for pest or weed control at 16 g/ha: 16 g ai/ha; for pest or weed control at 31 g/ha: 31 g ai/ha; for pest or weed control at 62 g/ha: 62 g ai/ha; for pest or weed control at 125 g/ha: 125 g ai/ha
Procedure, shortened: as §1

[9] = tested on: spring wheat (Triticum aestivum); details: scale 0 to 100, read-out: Plant response rating, Wheat, Spring; for plant injury at 16 g/ha: 16 g ai/ha; for plant injury at 62 g/ha: 62 g ai/ha; for plant injury at 125 g/ha: 125 g ai/ha
Procedure, shortened: as §1

[10] = tested on: winter barley (Hordeum vulgare); details: scale 0 to 100, read-out: Plant response rating, Barley, Winter; for plant injury at 16 g/ha: 16 g ai/ha; for plant injury at 31 g/ha: 31 g ai/ha; for plant injury at 62 g/ha: 62 g ai/ha; for plant injury at 125 g/ha: 125 g ai/ha
Procedure, shortened: as §1

`Fc1cccc(Oc2ncc(Cl)cn2)c1-c1cc(C(F)F)on1` [Compound 55, 5-chloro-2-[2-[5-(difluoromethyl)-3-isoxazolyl]-3-fluorophenoxy]pyrimidine] showed a pest or weed control at 16 g/ha ([1]; post-emergence, Postemergence) of 20%, a pest or weed control at 31 g/ha ([1]; post-emergence, Postemergence) of 20% and a pest or weed control at 62 g/ha ([1]; post-emergence, Postemergence) of 15%. It also gave a pest or weed control at 125 g/ha ([1]; post-emergence, Postemergence) of 20%, a pest or weed control at 16 g/ha ([1]; pre-emergence, Preemergence) of 0% and a pest or weed control at 31 g/ha ([1]; pre-emergence, Preemergence) of 0%. It also gave a pest or weed control at 62 g/ha ([1]; pre-emergence, Preemergence) of 50%, a pest or weed control at 125 g/ha ([1]; pre-emergence, Preemergence) of 50% and a pest or weed control at 16 g/ha ([2]; post-emergence, Postemergence) of 55%. The pest or weed control at 31 g/ha ([2]; post-emergence, Postemergence) was 55%, the pest or weed control at 62 g/ha ([2]; post-emergence, Postemergence) was 70% and the pest or weed control at 125 g/ha ([2]; post-emergence, Postemergence) was 70%. For the same compound, the pest or weed control at 16 g/ha ([2]; pre-emergence, Preemergence) was 65%, the pest or weed control at 31 g/ha ([2]; pre-emergence, Preemergence) was 100% and the pest or weed control at 62 g/ha ([2]; pre-emergence, Preemergence) was 100%. For the same compound, the pest or weed control at 125 g/ha ([2]; pre-emergence, Preemergence) was 100%, the pest or weed control at 16 g/ha ([3]; post-emergence, Postemergence) was 65% and the pest or weed control at 31 g/ha ([3]; post-emergence, Postemergence) was 70%. For the same compound, the pest or weed control at 62 g/ha ([3]; post-emergence, Postemergence) was 85%, the pest or weed control at 125 g/ha ([3]; post-emergence, Postemergence) was 90% and the pest or weed control at 16 g/ha ([3]; pre-emergence, Preemergence) was 70%. The pest or weed control at 31 g/ha ([3]; pre-emergence, Preemergence) was 80%, the pest or weed control at 62 g/ha ([3]; pre-emergence, Preemergence) was 100% and the pest or weed control at 125 g/ha ([3]; pre-emergence, Preemergence) was 100%. The pest or weed control at 16 g/ha ([4]; post-emergence, Postemergence) was 70%, the pest or weed control at 31 g/ha ([4]; post-emergence, Postemergence) was 85% and the pest or weed control at 62 g/ha ([4]; post-emergence, Postemergence) was 80%. The pest or weed control at 125 g/ha ([4]; post-emergence, Postemergence) was 85%, the pest or weed control at 16 g/ha ([4]; pre-emergence, Preemergence) was 10% and the pest or weed control at 31 g/ha ([4]; pre-emergence, Preemergence) was 100%. It also gave a pest or weed control at 62 g/ha ([4]; pre-emergence, Preemergence) of 70%, a pest or weed control at 125 g/ha ([4]; pre-emergence, Preemergence) of 100% and a pest or weed control at 16 g/ha ([5]; post-emergence, Postemergence) of 30%. The pest or weed control at 31 g/ha ([5]; post-emergence, Postemergence) was 45%, the pest or weed control at 62 g/ha ([5]; post-emergence, Postemergence) was 50% and the pest or weed control at 125 g/ha ([5]; post-emergence, Postemergence) was 60%. It also gave a pest or weed control at 16 g/ha ([5]; pre-emergence, Preemergence) of 10%, a pest or weed control at 31 g/ha ([5]; pre-emergence, Preemergence) of 25% and a pest or weed control at 62 g/ha ([5]; pre-emergence, Preemergence) of 100%. For the same compound, the pest or weed control at 125 g/ha ([5]; pre-emergence, Preemergence) was 100%, the pest or weed control at 16 g/ha ([6]; post-emergence, Postemergence) was 75% and the pest or weed control at 31 g/ha ([6]; post-emergence, Postemergence) was 80%. The pest or weed control at 62 g/ha ([6]; post-emergence, Postemergence) was 85%, the pest or weed control at 125 g/ha ([6]; post-emergence, Postemergence) was 90% and the pest or weed control at 16 g/ha ([6]; pre-emergence, Preemergence) was 95%. For the same compound, the pest or weed control at 31 g/ha ([6]; pre-emergence, Preemergence) was 100%, the pest or weed control at 62 g/ha ([6]; pre-emergence, Preemergence) was 100% and the pest or weed control at 125 g/ha ([6]; pre-emergence, Preemergence) was 100%. It also gave a plant injury at 16 g/ha ([7]; post-emergence, Postemergence) of 75%, a plant injury at 31 g/ha ([7]; post-emergence, Postemergence) of 75% and a plant injury at 62 g/ha ([7]; post-emergence, Postemergence) of 90%. The plant injury at 125 g/ha ([7]; post-emergence, Postemergence) was 95%, the plant injury at 16 g/ha ([7]; pre-emergence, Preemergence) was 20% and the plant injury at 31 g/ha ([7]; pre-emergence, Preemergence) was 100%. It also gave a plant injury at 62 g/ha ([7]; pre-emergence, Preemergence) of 100%, a plant injury at 125 g/ha ([7]; pre-emergence, Preemergence) of 100% and a pest or weed control at 16 g/ha ([8]; post-emergence, Postemergence) of 85%. It also gave a pest or weed control at 31 g/ha ([8]; post-emergence, Postemergence) of 90%, a pest or weed control at 62 g/ha ([8]; post-emergence, Postemergence) of 95% and a pest or weed control at 125 g/ha ([8]; post-emergence, Postemergence) of 95%. The pest or weed control at 16 g/ha ([8]; pre-emergence, Preemergence) was 75%, the pest or weed control at 31 g/ha ([8]; pre-emergence, Preemergence) was 100% and the pest or weed control at 62 g/ha ([8]; pre-emergence, Preemergence) was 100%. It also gave a pest or weed control at 125 g/ha ([8]; pre-emergence, Preemergence) of 100%, a plant injury at 16 g/ha ([9]; post-emergence, Postemergence) of 5% and a plant injury at 31 g/ha ([9]; post-emergence, 31 g ai/ha, Postemergence) of 15%. For the same compound, the plant injury at 62 g/ha ([9]; post-emergence, Postemergence) was 25%, the plant injury at 125 g/ha ([9]; post-emergence, Postemergence) was 45% and the plant injury at 16 g/ha ([9]; pre-emergence, Preemergence) was 15%. The plant injury at 62 g/ha ([9]; pre-emergence, Preemergence) was 15%, the plant injury at 125 g/ha ([9]; pre-emergence, Preemergence) was 35% and the plant injury at 16 g/ha ([10]; post-emergence, Postemergence) was 0%. For the same compound, the plant injury at 31 g/ha ([10]; post-emergence, Postemergence) was 0%, the plant injury at 62 g/ha ([10]; post-emergence, Postemergence) was 5% and the plant injury at 125 g/ha ([10]; post-emergence, Postemergence) was 10%. The plant injury at 16 g/ha ([10]; pre-emergence, Preemergence) was 5%, the plant injury at 31 g/ha ([10]; pre-emergence, Preemergence) was 10% and the plant injury at 62 g/ha ([10]; pre-emergence, Preemergence) was 10%. It also gave a plant injury at 125 g/ha ([10]; pre-emergence, Preemergence) of 35%.
